Marks after values point to notes of the source that are not given here.
Test system: patients with advanced solid tumors
Assay: Phase I dose escalation: safety, tolerability, dose-limiting toxicity (CTCAE v4.0)
[1] = 325 mg/m^2 d1,8,15, N patients 4
[2] = 650 mg/m^2 d1,8,15, N patients 5
[3] = 40 treated patients, all dose levels
[4] = 475* mg/m^2 d1,8,15, N patients 6

Question: What does the source list for `Cc1cnc(CNC(=O)c2c(=O)c3ccc(N4CCCN(C)CC4)nc3n3c2sc2ccccc23)cn1` [CX-5461]?
Answer: Diarrhea, any causality, all grades (patients) (50 mg/m^2 d1,8, N patients 4): 2; Dry eye, any causality, all grades (patients) (50 mg/m^2 d1,8, N patients 4): 1; Fatigue, any causality, all grades (patients) (50 mg/m^2 d1,8, N patients 4): 4; Headache, any causality, all grades (patients) (50 mg/m^2 d1,8, N patients 4): 1; Nausea, any causality, all grades (patients) (50 mg/m^2 d1,8, N patients 4): 3; Palmar–plantar erythrodysesthesia syndrome, any causality, all grades (patients) (50 mg/m^2 d1,8, N patients 4): 1; Phototoxicity, any causality, all grades (patients) (50 mg/m^2 d1,8, N patients 4): 2; Phototoxicity, number in parentheses (undefined in table; fits grade 3–4 count) (50 mg/m^2 d1,8, N patients 4): 1; Diarrhea, any causality, all grades (patients) (100 mg/m^2 d1,8, N patients 4): 1; Dry eye, any causality, all grades (patients) (100 mg/m^2 d1,8, N patients 4): 1; Eye phototoxicity, any causality, all grades (patients) (100 mg/m^2 d1,8, N patients 4): 1; Fatigue, any causality, all grades (patients) (100 mg/m^2 d1,8, N patients 4): 3; Headache, any causality, all grades (patients) (100 mg/m^2 d1,8, N patients 4): 3; Mucositis oral, any causality, all grades (patients) (100 mg/m^2 d1,8, N patients 4): 2; Nausea, any causality, all grades (patients) (100 mg/m^2 d1,8, N patients 4): 3; Palmar–plantar erythrodysesthesia syndrome, any causality, all grades (patients) (100 mg/m^2 d1,8, N patients 4): 1; Phototoxicity, any causality, all grades (patients) (100 mg/m^2 d1,8, N patients 4): 1; Diarrhea, any causality, all grades (patients) (150 mg/m^2 d1,8, N patients 4): 1; Dry eye, any causality, all grades (patients) (150 mg/m^2 d1,8, N patients 4): 2; Fatigue, any causality, all grades (patients) (150 mg/m^2 d1,8, N patients 4): 3; Headache, any causality, all grades (patients) (150 mg/m^2 d1,8, N patients 4): 2; Mucositis oral, any causality, all grades (patients) (150 mg/m^2 d1,8, N patients 4): 1; Nausea, any causality, all grades (patients) (150 mg/m^2 d1,8, N patients 4): 4; Palmar–plantar erythrodysesthesia syndrome, any causality, all grades (patients) (150 mg/m^2 d1,8, N patients 4): 1; Phototoxicity, any causality, all grades (patients) (150 mg/m^2 d1,8, N patients 4): 1; ALT, Grade 3 or 4 (patients) (150 mg/m^2 d1,8, N pts 4): 2; AST, Grade 3 or 4 (patients) (150 mg/m^2 d1,8, N pts 4): 2; Alkaline phosphatase, Grade 3 or 4 (patients) (150 mg/m^2 d1,8, N pts 4): 1; Bilirubin, Grade 3 or 4 (patients) (150 mg/m^2 d1,8, N pts 4): 1; Neutropenia, Grade 3 or 4 (patients) (150 mg/m^2 d1,8, N pts 4): 1; Thrombocytopenia, Grade 3 or 4 (patients) (150 mg/m^2 d1,8, N pts 4): 1; Diarrhea, any causality, all grades (patients) (200 mg/m^2 d1,8, N patients 4): 2; Dry eye, any causality, all grades (patients) (200 mg/m^2 d1,8, N patients 4): 1; Fatigue, any causality, all grades (patients) (200 mg/m^2 d1,8, N patients 4): 2; Nausea, any causality, all grades (patients) (200 mg/m^2 d1,8, N patients 4): 3; Phototoxicity, any causality, all grades (patients) (200 mg/m^2 d1,8, N patients 4): 2; ALT, Grade 3 or 4 (patients) (200 mg/m^2 d1,8, N pts 4): 1; AST, Grade 3 or 4 (patients) (200 mg/m^2 d1,8, N pts 4): 1; Anemia, Grade 3 or 4 (patients) (200 mg/m^2 d1,8, N pts 4): 1; Fatigue, any causality, all grades (patients) (250 mg/m^2 d1,8, N patients 3): 2; Headache, any causality, all grades (patients) (250 mg/m^2 d1,8, N patients 3): 1; Mucositis oral, any causality, all grades (patients) (250 mg/m^2 d1,8, N patients 3): 1; Nausea, any causality, all grades (patients) (250 mg/m^2 d1,8, N patients 3): 2; Palmar–plantar erythrodysesthesia syndrome, any causality, all grades (patients) (250 mg/m^2 d1,8, N patients 3): 2; Phototoxicity, any causality, all grades (patients) (250 mg/m^2 d1,8, N patients 3): 3; Phototoxicity, number in parentheses (undefined in table; fits grade 3–4 count) (250 mg/m^2 d1,8, N patients 3): 1; Dry eye, any causality, all grades (patients) [1]: 1; Eye phototoxicity, any causality, all grades (patients) [1]: 1; Fatigue, any causality, all grades (patients) [1]: 2; Nausea, any causality, all grades (patients) [1]: 1; Palmar–plantar erythrodysesthesia syndrome, any causality, all grades (patients) [1]: 1; Phototoxicity, any causality, all grades (patients) [1]: 4; Phototoxicity, number in parentheses (undefined in table; fits grade 3–4 count) [1]: 1; AST, Grade 3 or 4 (patients) (325 mg/m^2 d1,8,15, N pts 4): 1; Neutropenia, Grade 3 or 4 (patients) (325 mg/m^2 d1,8,15, N pts 4): 1; Diarrhea, any causality, all grades (patients) (325 mg/m^2 d1,8, N patients 3): 1; Fatigue, any causality, all grades (patients) (325 mg/m^2 d1,8, N patients 3): 3; Fatigue, number in parentheses (undefined in table; fits grade 3–4 count) (325 mg/m^2 d1,8, N patients 3): 1; Nausea, any causality, all grades (patients) (325 mg/m^2 d1,8, N patients 3): 2; Nausea, number in parentheses (undefined in table; fits grade 3–4 count) (325 mg/m^2 d1,8, N patients 3): 1; Palmar–plantar erythrodysesthesia syndrome, any causality, all grades (patients) (325 mg/m^2 d1,8, N patients 3): 1; Phototoxicity, any causality, all grades (patients) (325 mg/m^2 d1,8, N patients 3): 1; Eye phototoxicity, any causality, all grades (patients) (475 mg/m^2 d1,8, N patients 3): 1; Fatigue, any causality, all grades (patients) (475 mg/m^2 d1,8, N patients 3): 2; Mucositis oral, any causality, all grades (patients) (475 mg/m^2 d1,8, N patients 3): 1; Nausea, any causality, all grades (patients) (475 mg/m^2 d1,8, N patients 3): 1; Palmar–plantar erythrodysesthesia syndrome, any causality, all grades (patients) (475 mg/m^2 d1,8, N patients 3): 1; Phototoxicity, any causality, all grades (patients) (475 mg/m^2 d1,8, N patients 3): 3; Diarrhea, any causality, all grades (patients) [2]: 1; Dry eye, any causality, all grades (patients) [2]: 1; Eye phototoxicity, any causality, all grades (patients) [2]: 3; Fatigue, any causality, all grades (patients) [2]: 3; Fatigue, number in parentheses (undefined in table; fits grade 3–4 count) [2]: 1; Headache, any causality, all grades (patients) [2]: 1; Mucositis oral, any causality, all grades (patients) [2]: 2; Nausea, any causality, all grades (patients) [2]: 3; Palmar–plantar erythrodysesthesia syndrome, any causality, all grades (patients) [2]: 1 (1); Palmar–plantar erythrodysesthesia syndrome, number in parentheses (undefined in table; fits grade 3–4 count) [2]: 1 (1); Phototoxicity, any causality, all grades (patients) [2]: 3; Phototoxicity, number in parentheses (undefined in table; fits grade 3–4 count) [2]: 1; Alkaline phosphatase, Grade 3 or 4 (patients) (650 mg/m^2 d1,8,15, N pts 5): 1; Neutropenia, Grade 3 or 4 (patients) (650 mg/m^2 d1,8,15, N pts 5): 2; toxicity to ionizing radiation (13 patients who received radiotherapy during or following treatment): no excess toxicity to ionizing radiation; Treatment-related Dry eye, Grade 3–4, % (40 treated patients): 0%; Treatment-related Dry eye, Total, % (40 treated patients): 10%; Treatment-related Eye phototoxicity, Grade 1–2, % (40 treated patients): 20%; Treatment-related Eye phototoxicity, Grade 3–4, % (40 treated patients): 0%; Treatment-related Eye phototoxicity, Total, % (40 treated patients): 20%; Treatment-related Headache, Grade 1–2, % (40 treated patients): 12.5%; Treatment-related Headache, Grade 3–4, % (40 treated patients): 0%; Treatment-related Headache, Total, % (40 treated patients): 12.5%; Treatment-related Mucositis oral, Grade 1–2, % (40 treated patients): 15%; Treatment-related Mucositis oral, Grade 3–4, % (40 treated patients): 0%; Treatment-related Mucositis oral, Total, % (40 treated patients): 15%; Treatment-related Nausea, Grade 1–2, % (40 treated patients): 42.5%; Treatment-related Nausea, Grade 3–4, % (40 treated patients): 2.5%; Treatment-related Nausea, Total, % (40 treated patients): 45%; Treatment-related Palmar–plantar erythrodysesthesia, Grade 1–2, % (40 treated patients): 20%; Treatment-related Palmar–plantar erythrodysesthesia, Grade 3–4, % (40 treated patients): 2.5%; Treatment-related Palmar–plantar erythrodysesthesia, Total, % (40 treated patients): 22.5%; Treatment-related Phototoxicity (skin), Grade 3–4, % (40 treated patients): 15%; Treatment-related Phototoxicity (skin), Total, % (40 treated patients): 60%; grade 3 or 4 related AE: nausea [3]: 2.5%; grade 3 or 4 related AE: palmar–plantar erythrodysesthesia syndrome [3]: 2.5%; grade 3 or 4 related AE: skin phototoxicity [3]: 15%; Diarrhea, any causality, all grades (patients) [4]: 1; Eye phototoxicity, any causality, all grades (patients) [4]: 2; Fatigue, any causality, all grades (patients) [4]: 5; Fatigue, number in parentheses (undefined in table; fits grade 3–4 count) [4]: 2; Headache, any causality, all grades (patients) [4]: 2; Nausea, any causality, all grades (patients) [4]: 6; Palmar–plantar erythrodysesthesia syndrome, any causality, all grades (patients) [4]: 1; Phototoxicity, any causality, all grades (patients) [4]: 4; Phototoxicity, number in parentheses (undefined in table; fits grade 3–4 count) [4]: 2; Anemia, Grade 3 or 4 (patients) (475* mg/m^2 d1,8,15, N pts 6): 2; Dose-limiting toxicities (number) (Dose level 9, 650 mg/m^2/dose, Day 1, 8 & 15 Q4 weeks, 5 enrolled, one occurred after cycle 1): 2 **; maximal administered dose (MAD) (d1, 8, 15 (DL9)): 650 mg/m^2; recommended phase II dose (RP2D) (days 1, 8 and 15 every 4 weeks, 60-minute intravenous infusion): 475 mg/m^2; SAEs considered related to CX-5461 (grade 3 phototoxicity (DL0), grade 2 eye phototoxicity (DL8), grade 3 phototoxicity (DL8)): 3; serious AEs (SAEs) reported (in 13 patients): Sixteen; dose-limiting toxicity (kind) (in vivo): phototoxicity; participants with dose omission because of phototoxicity (in vivo): six; participants with dose reductions because of phototoxicity (in vivo): two; patients discontinuing therapy because of phototoxicity (in vivo): one

From article PMC9232501, “Results of the phase I CCTG IND.231 trial of CX-5461 in patients with advanced solid tumors enriched for DNA-repair deficiencies” (Nature Communications, 2022)
